Experimental data as given in patent publication US11453666B2, “Autotaxin inhibitory compounds” (Cancer Research Technology Limited, priority 2015, dated 2022).
Read-outs that look alike come from different tables or passages of the source.

Molecular target: human recombinant ATX (Homo sapiens, UniProt Q13822)
Experiment: Autotaxin (ATX) activity Quanta Red assay
Format: biochemical
Conditions: read-out: Activity (ATX activity, Quanta Red assay; IC50)
Method in brief: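 Recombinant human ATX reaction stopped after 2 h with Quanta Red stop solution; fluorescence read at […]. Controls with DMSO, with and without ATX; IC50 in duplicate.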

[1] = human recombinant ATX 0.8 μg/mL, 2 hours at room temperature, IC50 determined in duplicate

SMILES | IC50 [µM] | IC50 [1] [µM]
CCC[C@H](NC(=O)CCc1nc2ccncc2n1Cc1ccc(F)cc1)c1ccccc1 [Example 134, 3-[3-(4-Fluoro-benzyl)-3H-imidazo[4,5-c]pyridin-2-yl]-N-((S)-1-phenyl-butyl)-propionamide] | 0.133 | –
C[C@H](NC(=O)COc1nc2cccnc2n1Cc1ccc(F)cc1)c1ccc(F)cc1 [Example 153, 2-[3-(4-fluoro-benzyl)-3H-imidazo[4,5-b]pyridin-2-yloxy]-N—[(S)-1-(4-fluoro-phenyl)-ethyl]-acetamide] | – | 0.039
CC(Sc1nc2cccnc2n1Cc1ccc(OC(F)(F)F)cc1)C(=O)N[C@@H](CO)c1ccccc1 (stereo partly drawn) [Example 154, N—((R)-2-hydroxy-1-phenyl-ethyl)-2-[3-(4-trifluoromethoxy-benzyl)-3H-imidazo[4,5-b]pyridin-2-ylsulfanyl]-propionamide] | 0.011 | –
C[C@H](NC(=O)CCc1nc2cccnc2n1Cc1ccc(OC(F)(F)F)cc1)c1ccc(N2CC[C@H](N(C)C)C2)cc1 [Example 169, N-{(S)-1-[4-((S)-3-Dimethylamino-pyrrolidin-1-yl)-phenyl]-ethyl}-3-[3-(4-trifluoromethoxy-benzyl)-3H-imidazo[4,5-b]pyridin-2-yl]-propionamide] | 0.001 | –
COc1ccc(CNC(=O)CCc2nc3cccnc3n2Cc2ccc(F)cc2)cc1 [Example 97, 3-[3-(4-Fluoro-benzyl)-3H-imidazo[4,5-b]pyridin-2-yl]-N-(4-methoxy-benzyl)-propionamide] | 0.04 | –
COc1ccc(Cn2c(CCC(=O)N[C@H](C)c3ccccc3)nc3cccnc32)cc1 [Example 112, 3-[3-(4-Methoxy-benzyl)-3H-imidazo[4,5-b]pyridin-2-yl]-N-((R)-1-phenyl-ethyl)-propionamide] | 1.06 | –
C[C@H](NC(=O)CCc1nc2cccnc2n1Cc1ccc(F)c(F)c1)c1ccc(N2CC[C@@H](O)C2)cc1 [Example 190, 3-[3-(3,4-Difluoro-benzyl)-3H-imidazo[4,5-b]pyridin-2-yl]-N-{(S)-1-[4-((R)-3-hydroxy-pyrrolidin-1-yl)-phenyl]-ethyl}-propionamide] | 0.02 | –
O=C(CCc1nc2ccncc2n1Cc1ccc(OC(F)(F)F)cc1)N[C@@H](CO)c1ccccc1 [Example 123, N-((R)-2-Hydroxy-1-phenyl-ethyl)-3-[3-(4-trifluoromethoxy-benzyl)-3H-imidazo[4,5-c]pyridin-2-yl]-propionamide] | 0.003 | –
O=C(CCc1nc2cccnc2n1Cc1ccc(F)c(F)c1)NC[C@H](O)c1ccccc1 [Example 67, 3-[3-(3,4-Difluoro-benzyl)-3H-imidazo[4,5-b]pyridin-2-yl]-N-((R)-2-hydroxy-2-phenyl-ethyl)-propionamide] | 0.169 | –
O=C(CCc1nc2cccnc2n1Cc1ccc(OC(F)(F)F)cc1)Nc1nccs1 [Example 69, N-Thiazol-2-yl-3-[3-(4-trifluoromethoxy-benzyl)-3H-imidazo[4,5-b]pyridin-2-yl]-propionamide] | 0.214 | –
C[C@H](NC(=O)CCc1nc2cccnc2n1Cc1ccc(F)c(F)c1)c1ccc(N2CCNCC2)cc1 [Example 193, 3-[3-(3,4-Difluoro-benzyl)-3H-imidazo[4,5-b]pyridin-2-yl]-N-[(S)-1-(4-piperazin-1-yl-phenyl)-ethyl]-propionamide] | 0.083 | –
C[C@H](NC(=O)C[S+]([O-])c1nc2cccnc2n1Cc1ccc(OC(F)(F)F)cc1)c1ccc(F)cc1 (single isomer, unassigned) [Example 148] | – | 0.01
COc1ccc(Cn2c(CCC(=O)N[C@@H](C)c3ccc(C)cc3)nc3cccnc32)cc1 [Example 90, 3-[3-(4-Methoxy-benzyl)-3H-imidazo[4,5-b]pyridin-2-yl]-N-((S)-1-p-tolyl-ethyl)-propionamide] | 0.009 | –
C[C@H](NC(=O)CCc1nc2cccnc2n1Cc1ccc(F)cc1)c1ccc(N2CCCC2)cc1 [Example 180, 3-[3-(4-Fluoro-benzyl)-3H-imidazo[4,5-b]pyridin-2-yl]-N-[(S)-1-(4-pyrrolidin-1-yl-phenyl)-ethyl]-propionamide] | 0.006 | –
O=C(CCc1nc2ccncc2n1Cc1ccc(OC(F)(F)F)cc1)NCc1ccc(Cl)cc1 [Example 129, N-(4-Chloro-benzyl)-3-[3-(4-trifluoromethoxy-benzyl)-3H-imidazo[4,5-c]pyridin-2-yl]-propionamide] | 0.02 | –
C[C@H](NC(=O)CCc1nc2cccnc2n1Cc1ccc(F)c(F)c1)c1ccc(N2CCCCC2)cc1 [Example 187, 3-[3-(3,4-Difluoro-benzyl)-3H-imidazo[4,5-b]pyridin-2-yl]-N-[(S)-1-(4-piperidin-1-yl-phenyl)-ethyl]-propionamide] | 0.015 | –
COc1ccc(Cn2c(CCC(=O)N(C)Cc3ccccc3)nc3cccnc32)cc1 [Example 102] | 0.568 | –
C[C@H](NC(=O)CCc1nc2cccnc2n1Cc1ccc(F)c(F)c1)c1ccc(CN(C)C)cc1 [Example 208, 3-[3-(3,4-Difluoro-benzyl)-3H-imidazo[4,5-b]pyridin-2-yl]-N-[(S)-1-(4-dimethylaminomethyl-phenyl)-ethyl]-propionamide] | 0.08 | –
C[C@@H](NC(=O)CCc1nc2cccnc2n1Cc1ccc(OC(F)(F)F)cc1)c1ccc(Cl)cc1 [Example 49, N-[(R)-1-(4-Chloro-phenyl)-ethyl]-3-[3-(4-trifluoromethoxy-benzyl)-3H-imidazo[4,5-b]pyridin-2-yl]-propionamide] | 0.021 | –
C[C@H](NC(=O)CCc1nc2cccnc2n1Cc1ccc(F)cc1)c1ccc(Br)cc1 [Example 83, N—[(S)-1-(4-bromo-phenyl)-ethyl]-3-[3-(4-fluoro-benzyl)-3H-imidazo[4,5-b]pyridin-2-yl]-propionamide] | 0.002 | –
O=C(CCc1nc2ccncc2n1Cc1ccc(OC(F)(F)F)cc1)NCc1ccc(F)cc1 [Example 133, N-(4-Fluoro-benzyl)-3-[3-(4-trifluoromethoxy-benzyl)-3H-imidazo[4,5-c]pyridin-2-yl]-propionamide] | 0.052 | –
C[C@H](NC(=O)CCc1nc2cccnc2n1Cc1ccc(OC(F)(F)F)cc1)c1ccc(N2CC[C@@H](N(C)C)C2)cc1 [Example 168, N-{(S)-1-[4-((R)-3-Dimethylamino-pyrrolidin-1-yl)-phenyl]-ethyl}-3-[3-(4-trifluoromethoxy-benzyl)-3H-imidazo[4,5-b]pyridin-2-yl]-propionamide] | 0.001 | –
COc1ccc(CNC(=O)CCc2nc3cccnc3n2Cc2ccc(F)c(F)c2)cc1 [Example 100, 3-[3-(3,4-Difluoro-benzyl)-3H-imidazo[4,5-b]pyridin-2-yl]-N-(4-methoxy-benzyl)-propionamide] | 0.05 | –
